The series relates to STAT6 protein. Kind of series: STAT6 Western Blot after 6-well plate transfection of A549 cells. The series is classed as cell-based, human. The conditions noted are these: STAT6 protein band density, 72 h post-transfection, average ±S.D., n = 3. As to the method:
A549 cells were plated in 6-well plates at final counts of 70,000 cells/well in 2 ml of complete growth media. Transfection was performed using 2.5 uL of RNAiMax per well. Final concentration of siNAs was 30 nM (screen) and 30, 0.3, and 0.003 nM (dose response study). Protein lysates were harvested 24, 48, and 72 hours post-transfection (screen) and 72 hours post-transfection (dose response study). Protein lysates were prepared using Cell Extraction Buffer (Invitrogen, cat# FNN0011) according to manufacturer's instructions. Protein concentration was measured using a Bradford Quick Start Kit (Bio-Rad, cat#500-0205).
The protein source for the Western Blot experiments were from transfection of A549 cells in a 6 well plate, as described above.
Protein samples were diluted 1:1 in 2× Laemmli buffer with 5% 13-mercapto-ethanol and incubated at 95° C. for 5 minutes. 40-50 ug of protein was loaded in each lane of 10% Tris-HCl gel. One lane was designated for MagicMark Protein Standard (Invitrogen # LC5602). The gel was run at 100V for approximately 2 hours. Protein was transferred to a PVDF membrane at 100V for 60 minutes. Once the transfer was finished, the membrane was blocked in 1% Casein in PBS (BioRad Cat#161-0783) for 1 hour on a plate rocker at room temperature followed by the overnight incubation at 4° C. with mouse monoclonal anti-STAT6 primary antibody (BD Biosciences, cat#611291) diluted 1:500 in 1% Casein. On the next day, the blot was washed 4×5 minutes in PBST solution and incubated for 30 minutes at room temperature with goat anti-mouse secondary antibody (Pierce Biotechnology, cat#3 31430) diluted 1:20,000 in 1% Casein. Then, the blot was washed 4×5 minutes with PBST and incubated for 1 minute with ECL Western Blotting Substrate (Pierce Biotechnology, Cat#32106). The bands were visualized on the Bio-Rad VersaDoc Imager.
The protein bands were quantified by computing their density which is defined by the ratio between the total intensity of all pixels and the area of the rectangle drawn around each band (intensity/mm^2). The density was calculated by the BioRad software.
The level of protein was quantified using the Bio-Rad VersaDoc Imager according to the protocols of that piece of equipment. A pixel count was performed in each lane using an area of identical size. Each sample was then compared to the appropriate control treated sample and converted to a percent of protein remaining compared to control.
The effects of lead siNAs on STATE protein level were compared to the effects of the universal control using a two tail Student's T-test to obtain a P value. P<0.05 was considered significant.
The siNAs and control were tested were tested at doses of 30 nM, […]. Blots were then probed with a-STAT6 and α-tubulin antibodies. All samples were harvested 72 hours post-transfection. The ratios of the treatments were then compared to the ratio of the control group using an t-test assuming unequal variances.
In general terms: In western blotting, separated proteins are transferred to a membrane and probed.

Results on three substances are retold here after patent publication US20120035247A1, “RNA Interference Mediated Inhibition of Signal Transducer and Activator of Transcription 6 (STAT6) Gene Expression Using Short Interfering Nucleic Acid (siNA)” (Merck Sharp & Dohme Corp., priority 2009, published 2012).

[invAb] = inverted abasic unit; m = 2'-O-methyl; r = 2'-OH (RNA); f = 2'-fluoro

With “30008-DC: STAT6 siNA duplex; sense SEQ ID NO: 80, antisense SEQ ID NO: 81; target CUGCUCUGCUCAGAUGUGA, site 2549 (sense CUGCUCUGCUCAGAUGUGATT; antisense UCACAUCUGAGCAGAGCAGUU; sense: DNA at AGT, 2'-fluoro at CU, [invAb] at 5' end, 3' end, backbone not given here; antisense: sugars from the 5' end rrrfmfffmmmfmmmmfmmmm, backbone not given here) [STAT6 siNA duplex; target CUGCUCUGCUCAGAUGUGA, site 2549]”, the “Density (Intensity/mm^2), 3 pM, 72 h” value is 58808.1 ± 5023.9 Intensity/mm^2; the “Density (Intensity/mm^2), 300 pM, 72 h” value was found to be 8356.8 ± 2186.6 Intensity/mm^2; the “Density (Intensity/mm^2), 30 nM, 72 h” value was 4254 ± 1579.4 Intensity/mm^2.
For “29997-DC: STAT6 siNA duplex; sense SEQ ID NO: 58, antisense SEQ ID NO: 59; target CUACCAUGGUGCCUUCUUA, site 2262 (sense CUACCAUGGUGCCUUCUUATT; antisense UAAGAAGGCACCAUGGUAGUU; sense: DNA at AGT, 2'-fluoro at CU, [invAb] at 5' end, 3' end, backbone not given here; antisense: sugars from the 5' end rrrmmmmmfmffmfmmfmmmm, backbone not given here) [STAT6 siNA duplex; target CUACCAUGGUGCCUUCUUA, site 2262]” the same measures were 49839.8 ± 2352.8 Intensity/mm^2, 5732.4 ± 1189.0 Intensity/mm^2 and 3203.8 ± 1309.6 Intensity/mm^2.
Take “29990-DC: STAT6 siNA duplex; sense SEQ ID NO: 44, antisense SEQ ID NO: 45; target GUGAAAGCCUGGUGGACAU, site 954 (sense GUGAAAGCCUGGUGGACAUTT; antisense AUGUCCACCAGGCUUUCACUU; sense: DNA at AGT, 2'-fluoro at CU, [invAb] at 5' end, 3' end, backbone not given here; antisense: sugars from the 5' end rrrfffmffmmmfffffmfmm, backbone not given here) [STAT6 siNA duplex; target GUGAAAGCCUGGUGGACAU, site 954]”: the “Density (Intensity/mm^2), 3 pM, 72 h” value was determined as 50078.4 ± 5978.2 Intensity/mm^2; the “Density (Intensity/mm^2), 300 pM, 72 h” value stood at 6192.2 ± 714.5 Intensity/mm^2; the “Density (Intensity/mm^2), 30 nM, 72 h” value was determined as 1134.6 ± 362.7 Intensity/mm^2.
